# Laboratory results published in patent US8952024B2, “Herbicidal pyrimidone derivatives” (E I du Pont de Nemours and Company, priority 2009, dated 2015).
# Assays:
# Assay type in all cases: in vivo
# [1] = test system: barnyardgrass (Echinochloa crus-galli); experiment: Test A pre-/postemergence plant response
# Description: (§1) Seeds of barnyardgrass (Echinochloa crus-galli), large crabgrass (Digitaria sanguinalis), giant foxtail (Setaria faberii), morningglory (Ipomoea spp.), pigweed (Amaranthus retroflexus), velvetleaf (Abutilon theophrasti), wheat (Triticum aestivum) and corn (Zea mays) were planted into a blend of loam soil and sand and treated preemergence with a directed soil spray using test chemicals formulated in a non-phytotoxic solvent mixture which included a surfactant. At the same time these species were also treated with postemergence applications of test compounds formulated in the same manner.
# (§2) Plants ranged in height from two to ten cm and were in the one- to two-leaf stage for the postemergence treatment. Treated plants and untreated controls were maintained in a greenhouse for approximately ten days, after which time all treated plants were compared to untreated controls and visually evaluated for injury. Plant response ratings, summarized in Table A, are based on a 0 to 100 scale where 0 is no effect and 100 is complete control. A dash (-) response means no test result.
# corn (Zea mays) = experiment: Test A pre-/postemergence plant response
# Description: as §1, §2
# [2] = test system: giant foxtail (Setaria faberii); experiment: Test A pre-/postemergence plant response
# Description: as §1, §2
# [3] = test system: large crabgrass (Digitaria sanguinalis); experiment: Test A pre-/postemergence plant response
# Description: as §1, §2
# [4] = test system: morningglory (Ipomoea spp.); experiment: Test A pre-/postemergence plant response
# Description: as §1, §2
# [5] = test system: pigweed (Amaranthus retroflexus); experiment: Test A pre-/postemergence plant response
# Description: as §1, §2
# [6] = test system: velvetleaf (Abutilon theophrasti); experiment: Test A pre-/postemergence plant response
# Description: as §1, §2
# [7] = test system: wheat (Triticum aestivum); experiment: Test A pre-/postemergence plant response
# Description: as §1, §2
# [8] = test system: barnyardgrass (Echinochloa crus-galli); experiment: Test B flooded paddy test; settings: for Plant response rating, Flood, Barnyardgrass: 250 g ai/ha, flooded paddy test, visual rating on 0 to 100 scale (0 no effect, 100 complete control) after 13 to 15 days; for Plant response rating, Barnyardgrass: Flood (flooded paddy test), 13 to 15 days
# Description: (§3) Plant species in the flooded paddy test consisted of rice (Oryza sativa), umbrella sedge (Cyperus difformis), ducksalad (Heteranthera limosa) and barnyardgrass (Echinochloa crus-galli) grown to the 2-leaf stage for testing. At the time of treatment, test pots were flooded with water to 3 cm above the soil surface, treated by application of test compounds directly to the paddy water, and then maintained at that water depth for the duration of the test.
# (§4) Treated plants and controls were maintained in a greenhouse for 13 to 15 days, after which time all treated plants were visually evaluated and compared to controls. Plant response ratings, summarized in Table B, are based on a scale of 0 to 100 where 0 is no effect and 100 is complete control. A dash (-) response means no test result.
# [9] = test system: ducksalad (Heteranthera limosa); experiment: Test B flooded paddy test; settings: for Plant response rating, Flood, Ducksalad: 250 g ai/ha, flooded paddy test, visual rating on 0 to 100 scale (0 no effect, 100 complete control) after 13 to 15 days; for Plant response rating, Ducksalad: Flood (flooded paddy test), 13 to 15 days
# Description: as §3, §4
# rice (Oryza sativa) = experiment: Test B flooded paddy test; settings: for Plant response rating, Rice: Flood (flooded paddy test), 13 to 15 days
# Description: as §3, §4
# [10] = test system: umbrella sedge (Cyperus difformis); experiment: Test B flooded paddy test; settings: for Plant response rating, Flood, Sedge, Umbrella: 250 g ai/ha, flooded paddy test, visual rating on 0 to 100 scale (0 no effect, 100 complete control) after 13 to 15 days; for Plant response rating, Sedge, Umbrella: Flood (flooded paddy test), 13 to 15 days
# Description: as §3, §4
# [11] = Postemergence, 125 g ai/ha, visual injury, 0 to 100 scale (0 no effect, 100 complete control), approx. ten days
# [12] = Postemergence, 500 g ai/ha, 0 to 100 scale, 0 = no effect, 100 = complete control, approx. ten days
# [13] = Preemergence, 125 g ai/ha, 0 to 100 scale, 0 = no effect, 100 = complete control
# [14] = Preemergence, 500 g ai/ha, visual injury, 0 to 100 scale (0 no effect, 100 complete control), approx. ten days
# [15] = 31 g ai/ha, scale of 0 to 100 where 0 is no effect and 100 is complete control
# [16] = 62 g ai/ha, scale 0 to 100, 0 is no effect, 100 is complete control
# [17] = 125 g ai/ha, scale 0 to 100, 0 is no effect, 100 is complete control
# [18] = 62 g ai/ha, scale of 0 to 100 where 0 is no effect and 100 is complete control
smiles,measurement,setting,value
O=C1CCCC(O)=C1C(=O)c1cnc(-c2ccccc2Cl)n(-c2ccccc2)c1=O [Compound 35],Barnyardgrass plant response rating,[1]; [11],10
same,"Plant response rating, Barnyardgrass",[1]; [12],60
same,"Plant response rating, Barnyardgrass",[1]; [13],0
same,"Plant response rating, Barnyardgrass",[1]; [14],0
same,Corn plant response rating,corn (Zea mays); [11],0
same,"Plant response rating, Corn",corn (Zea mays); [12],10
same,"Plant response rating, Corn",corn (Zea mays); [13],0
same,"Plant response rating, Corn",corn (Zea mays); [14],0
same,"Foxtail, Giant plant response rating",[2]; [11],40
same,"Plant response rating, Foxtail, Giant",[2]; [12],80
same,"Plant response rating, Foxtail, Giant",[2]; [13],0
same,"Plant response rating, Foxtail, Giant",[2]; [14],10
same,"Crabgrass, Large plant response rating",[3]; [11],50
same,"Plant response rating, Crabgrass, Large",[3]; [12],80
same,"Plant response rating, Crabgrass, Large",[3]; [13],10
same,"Plant response rating, Crabgrass, Large",[3]; [14],60
same,"Plant response rating, Morningglory",[4]; [12],80
same,"Plant response rating, Morningglory",[4]; [14],20
same,Pigweed plant response rating,[5]; [11],80
same,"Plant response rating, Pigweed",[5]; [12],100
same,"Plant response rating, Pigweed",[5]; [13],10
same,"Plant response rating, Pigweed",[5]; [14],100
same,Velvetleaf plant response rating,[6]; [11],100
same,"Plant response rating, Velvetleaf",[6]; [12],100
same,"Plant response rating, Velvetleaf",[6]; [13],0
same,"Plant response rating, Velvetleaf",[6]; [14],70
same,Wheat plant response rating,[7]; [11],0
same,"Plant response rating, Wheat",[7]; [12],0
same,"Plant response rating, Wheat",[7]; [13],0
same,"Plant response rating, Wheat",[7]; [14],0
same,"Plant response rating, Flood, Barnyardgrass",[8],0
same,"Plant response rating, Barnyardgrass",[8]; [15],0
same,"Plant response rating, Barnyardgrass",[8]; [16],0
same,"Plant response rating, Barnyardgrass",[8]; [17],0
same,"Plant response rating, Flood, Ducksalad",[9],0
same,"Plant response rating, Ducksalad",[9]; [15],0
same,"Plant response rating, Ducksalad",[9]; [16],0
same,"Plant response rating, Ducksalad",[9]; [17],0
same,"Plant response rating, Rice",rice (Oryza sativa); [15],0
same,"Plant response rating, Rice",rice (Oryza sativa); [16],0
same,"Plant response rating, Rice",rice (Oryza sativa); [17],0
same,"Plant response rating, Flood, Sedge, Umbrella",[10],0
same,"Plant response rating, Sedge, Umbrella",[10]; [15],0
same,"Plant response rating, Sedge, Umbrella",[10]; [16],0
same,"Plant response rating, Sedge, Umbrella",[10]; [17],0
CCCCCCc1ncc(C(=O)C2=C(O)CCCC2=O)c(=O)n1-c1ccccc1 [Compound 54],Barnyardgrass plant response rating,[1]; [11],10
same,"Plant response rating, Barnyardgrass",[1]; [12],60
same,"Plant response rating, Barnyardgrass",[1]; [13],0
same,"Plant response rating, Barnyardgrass",[1]; [14],10
same,Corn plant response rating,corn (Zea mays); [11],0
same,"Plant response rating, Corn",corn (Zea mays); [12],10
same,"Plant response rating, Corn",corn (Zea mays); [13],0
same,"Plant response rating, Corn",corn (Zea mays); [14],0
same,"Foxtail, Giant plant response rating",[2]; [11],10
same,"Plant response rating, Foxtail, Giant",[2]; [12],60
same,"Plant response rating, Foxtail, Giant",[2]; [13],0
same,"Plant response rating, Foxtail, Giant",[2]; [14],0
same,"Crabgrass, Large plant response rating",[3]; [11],40
same,"Plant response rating, Crabgrass, Large",[3]; [12],70
same,"Plant response rating, Crabgrass, Large",[3]; [13],0
same,"Plant response rating, Crabgrass, Large",[3]; [14],30
same,Morningglory plant response rating,[4]; [11],40
same,"Plant response rating, Morningglory",[4]; [12],100
same,"Plant response rating, Morningglory",[4]; [13],0
same,"Plant response rating, Morningglory",[4]; [14],0
same,Pigweed plant response rating,[5]; [11],100
same,"Plant response rating, Pigweed",[5]; [12],100
same,"Plant response rating, Pigweed",[5]; [13],80
same,"Plant response rating, Pigweed",[5]; [14],90
same,Velvetleaf plant response rating,[6]; [11],100
same,"Plant response rating, Velvetleaf",[6]; [12],100
same,"Plant response rating, Velvetleaf",[6]; [13],60
same,"Plant response rating, Velvetleaf",[6]; [14],70
same,Wheat plant response rating,[7]; [11],0
same,"Plant response rating, Wheat",[7]; [12],0
same,"Plant response rating, Wheat",[7]; [13],0
same,"Plant response rating, Wheat",[7]; [14],0
same,"Plant response rating, Flood, Barnyardgrass",[8],0
same,"Plant response rating, Barnyardgrass",[8]; [15],0
same,"Plant response rating, Barnyardgrass",[8]; [18],0
same,"Plant response rating, Barnyardgrass",[8]; [17],0
same,"Plant response rating, Flood, Ducksalad",[9],40
same,"Plant response rating, Ducksalad",[9]; [15],0
same,"Plant response rating, Ducksalad",[9]; [18],0
same,"Plant response rating, Ducksalad",[9]; [17],30
same,"Plant response rating, Flood, Rice","rice (Oryza sativa); 250 g ai/ha, flooded paddy test, visual rating on 0 to 100 scale (0 no effect, 100 complete control) after 13 to 15 days",0
same,"Plant response rating, Rice",rice (Oryza sativa); [15],0
same,"Plant response rating, Rice",rice (Oryza sativa); [18],0
same,"Plant response rating, Rice",rice (Oryza sativa); [17],0
same,"Plant response rating, Flood, Sedge, Umbrella",[10],40
same,"Plant response rating, Sedge, Umbrella",[10]; [15],0
same,"Plant response rating, Sedge, Umbrella",[10]; [18],0
same,"Plant response rating, Sedge, Umbrella",[10]; [17],0
